According to patent US9382204B2, “Inhibitors targeting the DNA-binding domain of human STAT3 for treatment of metastatic cancers” (Indiana University Research and Technology Corporation, priority 2013, dated 2016):

Test system: STAT3
Experiment: STAT3-dependent luciferase reporter assay in MDA-MB-231-STAT3 stable cells
Type: cell-based, human
Conditions: 20 μM; for Rel. luciferase activity (%) 1: experiment 1, relative to DMSO; for Rel. luciferase activity (%) 2: experiment 2, relative to DMSO; for Rel. luciferase activity (%) 3: experiment 3, relative to DMSO; for Rel. luciferase activity (%) Mean: mean of experiments, relative to DMSO; for inhibition of luciferase expression compared to DMSO vehicle control: significant = p value less than 0.05
Experimental: FIG. 12. Identification of active inS3-54 analogues. (A) Effects of inS3-54 analogues on STAT3-dependent luciferase expression. MDA-MB-231 cells with stable STAT3-dependent luciferase expression were treated with DMSO control, 20 μM inSTAT3-54 or its analogues (A1-A79), followed by measurement of luciferase activity. (*p<0.05; **p<0.01; ***p<0.001).
MDA-MB-231-STAT3 stable cell line with high level of STAT3-dependent luciferase expression was exposed to candidate compounds at 20 μM in DMSO for 48 hours based on previous studies, and luciferase activity was measured using a luciferase assay kit (Promega, USA), following manufacturer's instructions. The final DMSO concentration in this and following assays was 0.1% (vol/vol).

Structure (SMILES)	Rel. luciferase activity (%) 1	Rel. luciferase activity (%) 2	Rel. luciferase activity (%) 3	Rel. luciferase activity (%) Mean	inhibition of luciferase expression compared to DMSO vehicle control
CC(=O)c1cccc(N2C(=O)C(=Cc3ccc(Cl)cc3)C=C2c2ccccc2)c1 [Compound A65]	86.6%	103.9%	91.2%	93.9%	–
COc1ccc(C=C2C=C(c3ccccc3)N(c3ccc(F)cc3)C2=O)cc1 [Compound A53]	45.4%	113.0%	47.4%	68.6%	–
COc1ccc(C=C2C=C(c3ccccc3)N(c3cccc4ccccc34)C2=O)cc1 [Compound A51]	42.2%	71.0%	56.6%	56.6%	significantly inhibited
COc1ccc(C=C2C=C(c3ccccc3)N(c3ccc(Cl)c(Cl)c3)C2=O)cc1 [Compound A52]	39.5%	141.9%	77.7%	86.4%	–
Cc1ccc(N2C(=O)C(=Cc3ccc(Cl)cc3)C=C2c2ccccc2)cc1[N+](=O)[O-] [Compound A25]	74.6%	124.2%	87.8%	95.6%	–
CC(C)(C)c1ccc(N2C(=O)C(=Cc3ccc(Cl)cc3)C=C2c2ccccc2)cc1 [Compound A21]	158.0%	174.7%	159.1%	163.9%	–
COC(=O)c1cc(N2C(=O)C(=Cc3ccc(Cl)cc3)C=C2c2ccccc2)ccc1Cl [Compound A66]	90.3%	110.5%	73.6%	91.5%	–
CC(=O)Nc1ccc(N2C(=O)C(=Cc3ccc([N+](=O)[O-])cc3)C=C2c2ccccc2)cc1 [Compound A47]	106.8%	108.8%	43.3%	86.3%	–
O=C1C(=Cc2ccc(-c3ccc([N+](=O)[O-])cc3)o2)C=C(c2ccccc2)N1c1ccc(F)cc1 [Compound A11]	73.5%	101.5%	91.7%	88.9%	–
COC(=O)c1ccc(N2C(=O)C(=Cc3ccc(Cl)cc3)C=C2c2ccccc2)cc1 [Compound A23]	99.2%	103.2%	69.4%	90.6%	–
COc1cccc(N2C(=O)C(=Cc3ccc([N+](=O)[O-])cc3)C=C2c2ccccc2)c1 [Compound A41]	60.5%	79.5%	81.2%	73.7%	significantly inhibited
CCN(CC)c1ccc(N2C(=O)C(=Cc3ccc([N+](=O)[O-])cc3)C=C2c2ccccc2)cc1 [Compound A45]	60.9%	89.3%	71.6%	73.9%	significantly inhibited
O=C1C(=Cc2ccc(Cl)cc2)C=C(c2ccccc2)N1c1cccc(Cl)c1 [Compound A76]	60.0%	151.4%	104.0%	105.1%	–
CN(C)c1ccc(N2C(=O)C(=Cc3ccc([N+](=O)[O-])cc3)C=C2c2ccccc2)cc1 [Compound A77]	109.7%	103.0%	77.0%	96.6%	–
O=C1C(=Cc2ccc(Cl)cc2)C=C(c2ccccc2)N1c1ccc2ccccc2c1 [Compound A59]	124.7%	148.5%	80.5%	117.9%	–
O=C1C(=Cc2ccc(Cl)cc2)C=C(c2ccccc2)N1c1ccc(F)cc1 [Compound A22]	97.9%	114.0%	61.1%	91.0%	–
